Data from ChEMBL document CHEMBL1144356 (J Med Chem, 2005).

Legend:
Canis familiaris [1] = assay: Effect on cholesterol lowering in male Beagle dog at an oral dose of 0.1 mkd for 3 days
Canis familiaris [2] = assay: Effect on cholesterol lowering in male Beagle dog at an oral dose of 0.3 mkd for 15 days with 4 mkd simavastatin
Canis familiaris [3] = assay: Effect on cholesterol lowering in male Beagle dog at an oral dose of 0.3 mkd for 7 days with 4 mkd simavastatin
[4] = target: T1, Peroxisome proliferator-activated receptor delta (Homo sapiens, UniProt Q03181); assay: In vitro binding affinity for PPAR-delta
T1 sequence (Q03181 whole entry): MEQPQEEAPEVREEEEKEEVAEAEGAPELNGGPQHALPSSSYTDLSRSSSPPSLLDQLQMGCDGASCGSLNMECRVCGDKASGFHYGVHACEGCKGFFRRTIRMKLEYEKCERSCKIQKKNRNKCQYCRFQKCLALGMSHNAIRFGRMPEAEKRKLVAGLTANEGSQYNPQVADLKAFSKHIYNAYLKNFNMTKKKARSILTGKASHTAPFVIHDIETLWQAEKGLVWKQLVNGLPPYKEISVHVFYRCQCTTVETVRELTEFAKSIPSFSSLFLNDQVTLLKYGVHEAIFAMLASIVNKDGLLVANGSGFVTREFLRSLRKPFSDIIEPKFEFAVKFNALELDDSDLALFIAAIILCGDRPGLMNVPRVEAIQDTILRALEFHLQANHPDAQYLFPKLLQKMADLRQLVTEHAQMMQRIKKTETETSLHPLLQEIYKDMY

Canis familiaris [5] = assay: Effect on cholesterol lowering in male Beagle dog at an oral dose of 0.3 mkd for 10 days
Cricetinae gen. sp. [6] = assay: Effect at an oral dose of 0.1 mg/kg/day for 14 days on serum cholesterol level of hamster; assay type: functional, Cricetulus griseus
Canis familiaris [7] = assay: Effect on cholesterol lowering in male Beagle dog at an oral dose of 0.3 mkd for 10 days with 4 mkd simavastatin
[8] = target: T2, Peroxisome proliferator-activated receptor gamma (Homo sapiens, UniProt P37231); assay: In vitro binding affinity for PPAR-gamma
T2 sequence (P37231 whole entry): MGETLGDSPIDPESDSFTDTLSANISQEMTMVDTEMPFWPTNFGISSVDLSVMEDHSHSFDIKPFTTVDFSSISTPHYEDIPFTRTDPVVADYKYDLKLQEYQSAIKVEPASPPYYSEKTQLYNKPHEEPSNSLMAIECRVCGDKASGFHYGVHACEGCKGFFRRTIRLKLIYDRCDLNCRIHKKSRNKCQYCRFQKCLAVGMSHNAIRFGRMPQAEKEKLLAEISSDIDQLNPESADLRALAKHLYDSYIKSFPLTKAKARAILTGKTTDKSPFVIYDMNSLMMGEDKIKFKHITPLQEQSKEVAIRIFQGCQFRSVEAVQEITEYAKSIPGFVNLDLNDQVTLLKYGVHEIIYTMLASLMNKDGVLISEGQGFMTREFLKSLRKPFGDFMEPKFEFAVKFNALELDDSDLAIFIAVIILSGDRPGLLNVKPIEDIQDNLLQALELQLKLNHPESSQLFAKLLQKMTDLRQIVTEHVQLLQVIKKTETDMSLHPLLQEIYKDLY

Canis familiaris [9] = assay: Effect on cholesterol lowering in male Beagle dog at an oral dose of 0.01 mkd for 10 days
Canis familiaris [10] = assay: Effect on cholesterol lowering in male Beagle dog at an oral dose of 0.1 mkd for 7 days
Canis familiaris [11] = assay: Effect on cholesterol lowering in male Beagle dog at an oral dose of 0.3 mkd for 3 days
Canis familiaris [12] = assay: Effect on cholesterol lowering in male Beagle dog at an oral dose of 0.01 mkd for 3 days
Canis familiaris [13] = assay: Effect on cholesterol lowering in male Beagle dog at an oral dose of 0.3 mkd for 7 days
Cricetinae gen. sp. [14] = assay: Effect at an oral dose of 0.3 mg/kg/day for 14 days on serum triglyceride level of hamster; assay type: functional, Cricetulus griseus
[15] = target: T3, Peroxisome proliferator-activated receptor alpha (Canis lupus familiaris, UniProt Q95N78); assay: Effective concentration against canine PPAR-alpha in Gal4 transactivation assay
T3 sequence (Q95N78 whole entry): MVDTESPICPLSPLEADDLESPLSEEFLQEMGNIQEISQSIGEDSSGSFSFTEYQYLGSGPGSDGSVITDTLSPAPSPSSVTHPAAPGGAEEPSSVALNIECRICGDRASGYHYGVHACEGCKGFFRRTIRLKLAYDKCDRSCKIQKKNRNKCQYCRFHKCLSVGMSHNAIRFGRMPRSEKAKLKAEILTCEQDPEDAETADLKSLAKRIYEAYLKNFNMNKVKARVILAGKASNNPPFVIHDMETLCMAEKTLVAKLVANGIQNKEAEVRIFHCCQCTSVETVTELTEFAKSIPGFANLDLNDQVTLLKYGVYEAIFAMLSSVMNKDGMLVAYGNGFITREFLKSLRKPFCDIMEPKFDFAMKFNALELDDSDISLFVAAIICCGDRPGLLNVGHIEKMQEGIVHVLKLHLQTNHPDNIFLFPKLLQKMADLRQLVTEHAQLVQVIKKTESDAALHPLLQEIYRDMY

Canis familiaris [16] = assay: Effect on cholesterol lowering in male Beagle dog at an oral dose of 0.1 mkd for 10 days
Cricetinae gen. sp. [17] = assay: Effect at an oral dose of 0.3 mg/kg/day for 14 days on serum cholesterol level of hamster; assay type: functional, Cricetulus griseus
Canis familiaris [18] = assay: Effect on cholesterol lowering in male Beagle dog at an oral dose of 0.3 mkd for 15 days
[19] = In vitro binding affinity for PPAR-alpha; set-up: species or system Homo sapiens
Canis familiaris [20] = assay: Effect on cholesterol lowering in male Beagle dog at an oral dose of 0.01 mkd for 7 days
Canis familiaris [21] = assay: Effect on cholesterol lowering in male Beagle dog at an oral dose of 0.03 mkd for 15 days
Cricetinae gen. sp. [22] = assay: Effect at an oral dose of 0.1 mg/kg/day for 14 days on serum triglyceride level of hamster; assay type: functional, Cricetulus griseus
Canis familiaris [23] = assay: Effect on cholesterol lowering in male Beagle dog at an oral dose of 0.03 mkd for 3 days
Canis familiaris [24] = assay: Effect on cholesterol lowering in male Beagle dog at an oral dose of 0.3 mkd for 3 days with 4 mkd simavastatin

IC50 [4]: > 15000 nM
IC50 [8]: > 15000 nM
EC50 [15]: 2 nM
IC50 [19]: 6 nM
Structure (SMILES): CC[C@@]1(C(=O)O)Cc2cc(OCCCOc3ccc(OC(F)(F)F)cc3Cl)ccc2O1
TC (Canis familiaris [1]): -7.5%
TC (Canis familiaris [2]): -39.7%
TC (Canis familiaris [3]): -27.8%
TC (Canis familiaris [5]): -20.5%
TC (Cricetinae gen. sp. [6]): -15%
TC (Canis familiaris [7]): -36.9%
TC (Canis familiaris [9]): -11.7%
TC (Canis familiaris [10]): -18%
TC (Canis familiaris [11]): -10.1%
TC (Canis familiaris [12]): -6.7%
TC (Canis familiaris [13]): -17.4%
TG (Cricetinae gen. sp. [14]): -31.85%
TC (Canis familiaris [16]): -22.1%
TC (Cricetinae gen. sp. [17]): -30%
TC (Canis familiaris [18]): -24.2%
TC (Canis familiaris [20]): -7.2%
TC (Canis familiaris [21]): -24.3%
TG (Cricetinae gen. sp. [22]): -11.78%
TC (Canis familiaris [23]): -6.5%
TC (Canis familiaris [24]): -14.2%
